Consider five compounds from the NIST ThermoML archive (doi:10.1021/acs.jced.6b00833).

Each structure is given as a SMILES string. Numbers after ± are expanded uncertainties.

For this data set the following is noted: 101.33 kPa, Liquid, Vibrating tube method.

In the case of `CCCC[N+](C)(C)C.O=S(=O)([N-]S(=O)(=O)C(F)(F)F)C(F)(F)F` [butyltrimethylammonium bis(trifluoromethylsulfonyl)imide], the mass density (298.48 K) is 1392.89 ± 8.4 kg/m3.
As to `C[S+](C)[O-]` [dimethyl sulfoxide], the mass density by setting is: (293.15 K) 1100.42 ± 6.6 kg/m3; (298.15 K) 1095.41 ± 6.6 kg/m3; (303.15 K) 1090.38 ± 6.5 kg/m3; (308.15 K) 1085.36 ± 6.5 kg/m3; (313.15 K) 1080.34 ± 6.5 kg/m3; (318.15 K) 1075.32 ± 6.5 kg/m3. For the same compound, the mass density by setting is: (323.15 K) 1070.31 ± 6.4 kg/m3; (328.15 K) 1065.29 ± 6.4 kg/m3; (333.15 K) 1060.28 ± 6.4 kg/m3; (338.15 K) 1055.26 ± 6.3 kg/m3; (343.15 K) 1050.23 ± 6.3 kg/m3; (348.15 K) 1045.21 ± 6.3 kg/m3. The mass density was 1040.19 ± 6.2 kg/m3 (353.15 K), 1035.15 ± 6.2 kg/m3 (358.15 K) and 1030.12 ± 6.2 kg/m3 (363.15 K).
For `CCCC[P+](C)(CCCC)CCCC.O=C[O-]` [tributylmethylphosphonium formate], the mass density is, setting by setting: (298.15 K) 950.7 ± 5.9 kg/m3; (303.15 K) 947.9 ± 5.9 kg/m3; (308.15 K) 945 ± 5.9 kg/m3; (313.15 K) 942.1 ± 5.9 kg/m3; (318.15 K) 939.2 ± 5.8 kg/m3; (323.15 K) 936.3 ± 5.8 kg/m3. The mass density (328.15 K) came out at 933.5 ± 5.8 kg/m3.
For `CCC[N+]1(C)CCCC1.N#CN=C=[N-]` [1-methyl-1-propylpyrrolidinium dicyanamide], the mass density is, setting by setting: (298.15 K) 1026.76 ± 6.2 kg/m3; (303.15 K) 1023.9 ± 6.2 kg/m3; (308.15 K) 1021.05 ± 6.2 kg/m3; (313.15 K) 1018.22 ± 6.2 kg/m3; (318.15 K) 1015.41 ± 6.1 kg/m3; (323.15 K) 1012.62 ± 6.1 kg/m3. The mass density is, setting by setting: (328.15 K) 1009.85 ± 6.1 kg/m3; (333.15 K) 1007.08 ± 6.1 kg/m3; (338.15 K) 1004.33 ± 6.1 kg/m3; (343.15 K) 1001.6 ± 6.1 kg/m3; (348.15 K) 998.88 ± 6 kg/m3; (353.15 K) 996.18 ± 6 kg/m3. The mass density runs as follows: (358.15 K) 993.49 ± 6 kg/m3; (363.15 K) 990.81 ± 6 kg/m3.
For `CC(=O)[O-].CCn1cc[n+](C)c1` [1-ethyl-3-methylimidazolium acetate], the mass density by setting is: (298.15 K) 1097.83 ± 6.9 kg/m3; (303.15 K) 1094.72 ± 6.9 kg/m3; (308.15 K) 1091.64 ± 6.9 kg/m3; (313.15 K) 1088.57 ± 6.8 kg/m3; (318.15 K) 1085.52 ± 6.8 kg/m3; (323.15 K) 1082.49 ± 6.8 kg/m3. In addition, the mass density is, setting by setting: (328.15 K) 1079.48 ± 6.8 kg/m3; (333.15 K) 1076.48 ± 6.8 kg/m3; (338.15 K) 1073.49 ± 6.7 kg/m3; (343.15 K) 1070.51 ± 6.7 kg/m3; (348.15 K) 1067.55 ± 6.7 kg/m3; (353.15 K) 1064.6 ± 6.7 kg/m3. Further, the mass density by setting is: (358.15 K) 1061.66 ± 6.7 kg/m3; (363.15 K) 1058.74 ± 6.6 kg/m3.

The mass density is the mass of a sample divided by its volume.
